Activity calls are given as the source filed them. The calls are words filed in the database; no cut-off is given here.
How the values were obtained:
Trichomonas vaginalis = experiment: Inhibition of Trichomonas vaginalis uridine ribohydrolase after 40 mins
[1] = Inhibition of Trichomonas vaginalis adenosine-guanosine preferring ribohydrolase after 40 mins
[2] = Inhibition of Trichomonas vaginalis adenosine-guanosine preferring ribohydrolase after 40 mins in presence of 0.01% triton X-100

SMILES | inhibition (Trichomonas vaginalis) | IC50 [1] [µM] | IC50 [2] [µM]
O=C1c2c(O)cc(O)cc2O[C@H](c2ccc(O)c(O)c2)[C@H]1O [(+)-TAXIFOLIN] | inactive | 9.3 | 34.2
COc1ccccc1OCCNCC(O)COc1cccc2[nH]c3ccccc3c12 (stereo not drawn) [CARVEDILOL] | inactive | 10.4 | –
OC[C@H]1O[C@@H](n2cnc3c(NC4CCCC4)nc(Cl)nc32)[C@H](O)[C@@H]1O | inactive | 9.8 | 11.7
O=C1c2c(O)cc(O)cc2OC(c2ccc(O)c(O)c2)C1O (racemic) [TAXIFOLIN] | inactive | 5.9 | 12.5
C[C@@H]1O[C@@H](OC[C@H]2O[C@@H](Oc3c(-c4ccc(O)c(O)c4)oc4cc(O)cc(O)c4c3=O)[C@H](O)[C@@H](O)[C@@H]2O)[C@H](O)[C@H](O)[C@H]1O [RUTIN] | inactive | 10.2 | 17.3

Molecules with a lower IC50 [1], results first:

inhibition (Trichomonas vaginalis) | IC50 [1] [µM] | IC50 [2] [µM] | SMILES
inactive | 1.8 | 3.5 | Cc1ccc(NC(=O)c2ccc(CN3CCN(C)CC3)cc2)cc1Nc1nccc(-c2cccnc2)n1 [IMATINIB]
inactive | 2.2 | 4 | O=c1c(O[C@@H]2O[C@H](CO)[C@H](O)[C@H](O)[C@H]2O)c(-c2ccc(O)c(O)c2)oc2cc(O)cc(O)c12 [HYPEROSIDE]
inactive | 0.3 | 0.9 | O=c1c(O[C@@H]2O[C@H](CO)[C@@H](O)[C@H](O)[C@H]2O)c(-c2ccc(O)c(O)c2)oc2cc(O)cc(O)c12 [ISOQUERCETIN]

Source: ChEMBL document CHEMBL3632572, “Adenosine/guanosine preferring nucleoside ribohydrolase is a distinct, druggable antitrichomonal target” (Bioorg Med Chem Lett, 2015)
